Test systems include A549; DU-145; HL-60; KM12; MDA-MB-435; NCI-H23; NCI-H522; OVCAR-5; PC-3; SF-295; SK-MEL-28; SK-MEL-5; SNB-75; SW-620; UACC-62; UO-31; HT-29; Malme-3M; NCI/ADR-RES; NCI-H226.
Common to all, as to assay: growth of human tumour cells (NCI), 48 h

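Where inhibition never reached the appropriate level, the endpoint shown equals the highest concentration tested. Otherwise, values were interpolated linearly from a five-concentration, 48-hour dose response in 96-well plates. At the GI50, growth is halved.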 Activity calls are given as the source filed them. Rule as the data show it: active = GI50 up to about 1.1 µM and inactive = higher. A value given as a limit tells only on which side of the number the result lay.

The source of these data is ChEMBL document CHEMBL1201862, “PubChem BioAssay data set” (2004).

Consider `O=c1c(-c2ccc3c(c2)OCO3)coc2c3c(ccc12)OCO3`, for which the GI50 in the assay with A549 is 49.9 µM (inactive); with DU-145, 41.4 µM (inactive); in the assay with HL-60 it was > 100 µM (inactive); in the assay with KM12 it was 30.8 µM (inactive); with MDA-MB-435 it was > 100 µM (inactive); in the assay with NCI-H23, 19.2 µM (inactive). In addition, the GI50 with NCI-H522 is 18.3 µM (inactive); with OVCAR-5, 56.6 µM (inactive); with PC-3, 75.9 µM (inactive); in the assay on SF-295, 18 µM (inactive); in the assay on SK-MEL-28 it was 24.3 µM (inactive); with SK-MEL-5, > 100 µM (inactive). Besides, the GI50 in the assay with SNB-75 is 23 µM (inactive); in the assay on SW-620 it was 39.7 µM (inactive); in the assay on UACC-62, 76.7 µM (inactive); with UO-31, 43.7 µM (inactive).
As for `O=C1CSC2=NC3=C(CSC/C3=C\c3ccc(Cl)cc3)C(c3ccc(Cl)cc3)N12` (stereo unspecified), the GI50 in the assay with A549 was 6.87 µM (inactive); with DU-145, 28.4 µM (inactive); in the assay with HL-60, 22.2 µM (inactive); with HT-29 it was 20.2 µM (inactive); in the assay on KM12, 8.04 µM (inactive); with MDA-MB-435, 25.1 µM (inactive). Moreover, the GI50 is 40.6 µM (inactive) in the assay with Malme-3M; 19.9 µM (inactive) in the assay on NCI-H23; 12.5 µM (inactive) with NCI-H522; 24.4 µM (inactive) with NCI/ADR-RES; 61.2 µM (inactive) in the assay with OVCAR-5; 5.22 µM (inactive) in the assay with PC-3. The GI50 with SF-295 is 12.1 µM (inactive); with SK-MEL-28, 27 µM (inactive); with SK-MEL-5, 14.4 µM (inactive); with SW-620, 23.8 µM (inactive); with UACC-62, 24.9 µM (inactive); in the assay on UO-31, 12.9 µM (inactive).
Regarding `C=C1C2CCC3(CCC4C5(C)CCCC4(C=[N+](CCO)C5)C3C2)C1O` (stereo unspecified), the GI50 in the assay with A549, with DU-145, with HL-60, in the assay with HT-29, in the assay on KM12 and in the assay with MDA-MB-435 was > 100 µM (inactive) in each case. The GI50 in the assay on Malme-3M, in the assay with NCI-H23, in the assay on NCI-H522, in the assay with NCI/ADR-RES, in the assay with OVCAR-5 and in the assay with PC-3 was > 100 µM (inactive) each time. Moreover, the GI50 with SF-295, in the assay with SK-MEL-28, in the assay with SK-MEL-5, in the assay with SNB-75, in the assay with SW-620 and with UACC-62 was > 100 µM (inactive) in each case. The GI50 in the assay on UO-31 was > 100 µM (inactive).
On to `CC1CCN(c2nnc(Cl)cc2C(=O)c2ccccc2)CC1`, for which the GI50 in the assay on A549 was 32.1 µM (inactive); in the assay with DU-145 it was 38.3 µM (inactive); in the assay with HL-60, 44.4 µM (inactive); in the assay on HT-29 it was 17.7 µM (inactive); in the assay with KM12, 18 µM (inactive); in the assay with MDA-MB-435, 21.5 µM (inactive). In addition, the GI50 in the assay on NCI-H23 was 25.5 µM (inactive); in the assay on NCI-H522, 26.7 µM (inactive); in the assay on NCI/ADR-RES, 36.6 µM (inactive); in the assay with OVCAR-5 it was 77.4 µM (inactive); in the assay with PC-3, 20.4 µM (inactive); in the assay with SF-295, 24.7 µM (inactive). Also, the GI50 in the assay on SK-MEL-28 was 39.3 µM (inactive); in the assay on SK-MEL-5 it was 16.6 µM (inactive); in the assay on SNB-75, 27.5 µM (inactive); in the assay with SW-620 it was 22.1 µM (inactive); with UACC-62 it was 26.8 µM (inactive); with UO-31, 23.1 µM (inactive).
Consider `FC(F)=C(c1ccc(-c2ccc(Cl)cc2)cc1)C(F)(F)F`, for which the GI50 is 17.9 µM (inactive) in the assay on A549; 18.7 µM (inactive) in the assay with DU-145; 45.3 µM (inactive) with HL-60; 25.6 µM (inactive) in the assay on HT-29; 19.3 µM (inactive) in the assay on KM12; 20.2 µM (inactive) in the assay with MDA-MB-435. Moreover, the GI50 in the assay with Malme-3M is 17.2 µM (inactive); in the assay on NCI-H23, 17.5 µM (inactive); with NCI-H522, 20.3 µM (inactive); with NCI/ADR-RES, 26.1 µM (inactive); in the assay on OVCAR-5 it was 17.5 µM (inactive); with PC-3 it was 17.3 µM (inactive). The GI50 in the assay on SF-295 was 22.5 µM (inactive); in the assay with SK-MEL-28 it was 12.4 µM (inactive); in the assay with SK-MEL-5 it was 18.2 µM (inactive); with SNB-75, 11 µM (inactive); with SW-620 it was 20 µM (inactive); with UACC-62 it was 19 µM (inactive). Besides, the GI50 in the assay with UO-31 is 16.4 µM (inactive).
Take `O=C(c1ccc2ccccc2c1)C1(I)S(=O)(=O)OCCOS1(=O)=O`: the GI50 with A549, in the assay on DU-145, with HL-60, with HT-29, with KM12 and with MDA-MB-435 was > 100 µM (inactive) each time. Further, the GI50 is > 100 µM (inactive) in the assay with Malme-3M; > 100 µM (inactive) in the assay with NCI-H23; > 100 µM (inactive) in the assay with NCI/ADR-RES; > 100 µM (inactive) in the assay with OVCAR-5; > 100 µM (inactive) in the assay with PC-3; 0.0102 µM (active) with SF-295. Besides, the GI50 with SK-MEL-28, with SK-MEL-5 and in the assay with UO-31 was > 100 µM (inactive) in each case.
As for `COc1cc(C(N)=O)cc(NC(=O)/C=C/c2ccccc2)c1OC`, the GI50 in the assay with A549, with DU-145, in the assay with HL-60, in the assay with HT-29, in the assay on KM12 and in the assay on MDA-MB-435 was > 100 µM (inactive) each time. In addition, the GI50 is > 100 µM (inactive) with Malme-3M; > 100 µM (inactive) in the assay with NCI-H23; 64.9 µM (inactive) with NCI-H522; > 100 µM (inactive) in the assay on NCI/ADR-RES; > 100 µM (inactive) in the assay on OVCAR-5; > 100 µM (inactive) in the assay with PC-3. The GI50 with SF-295 is 59.6 µM (inactive); in the assay with SK-MEL-28, > 100 µM (inactive); with SK-MEL-5, 64.7 µM (inactive); in the assay on SNB-75 it was 19.7 µM (inactive); with SW-620 it was > 100 µM (inactive); with UACC-62, > 100 µM (inactive). Further, the GI50 in the assay on UO-31 was > 100 µM (inactive).
On to `CC1=C2C(=O)c3ccccc3C(=O)[C@H]2C[C@@H](N2CCCC2=O)O1`, for which the GI50 was 43.1 µM (inactive) in the assay on A549; 26.9 µM (inactive) in the assay with DU-145; 40.8 µM (inactive) in the assay on HL-60; 41.6 µM (inactive) in the assay with HT-29; 77.6 µM (inactive) in the assay with KM12; 18.5 µM (inactive) with MDA-MB-435. Besides, the GI50 with Malme-3M is 17.4 µM (inactive); in the assay with NCI-H23 it was 21.9 µM (inactive); in the assay on NCI-H522 it was 79.8 µM (inactive); in the assay with NCI/ADR-RES, 28.4 µM (inactive); in the assay with OVCAR-5 it was 19.4 µM (inactive); in the assay on PC-3 it was > 100 µM (inactive). The GI50 is 66.8 µM (inactive) in the assay with SF-295; 54.7 µM (inactive) in the assay on SK-MEL-28; 17.1 µM (inactive) with SK-MEL-5; 15.3 µM (inactive) in the assay on SNB-75; 23.8 µM (inactive) in the assay on SW-620; 33 µM (inactive) in the assay with UACC-62. In addition, in the assay on UO-31, the GI50 was > 100 µM (inactive).
For the compound `OC1CSCCCSCCSCCCSC1`, the GI50 with A549, in the assay with DU-145, in the assay with HT-29, in the assay on MDA-MB-435, in the assay with NCI-H226 and with NCI-H23 was > 100 µM (inactive) each time. Moreover, the GI50 in the assay with NCI-H522, in the assay with OVCAR-5, in the assay with PC-3, in the assay on SF-295, in the assay on SK-MEL-28 and in the assay on SK-MEL-5 was > 100 µM (inactive) in each case. For the same compound, the GI50 with SNB-75, in the assay on SW-620, in the assay with UACC-62 and in the assay on UO-31 was > 100 µM (inactive) each time.
Take `O=CN/C=C/c1cc(O)ccc1O` [ERBSTATIN]: the GI50 in the assay on A549 is > 65.6 µM (inactive); with DU-145, 30.1 µM (inactive); in the assay on HL-60, 5.14 µM (inactive); in the assay on HT-29, 22.2 µM (inactive); in the assay with KM12 it was > 89.3 µM (inactive); in the assay with Malme-3M, 17.9 µM (inactive). Also, the GI50 with NCI-H226 was 44 µM (inactive); with NCI-H23, 18.8 µM (inactive); with NCI-H522 it was 4.6 µM (inactive); in the assay on NCI/ADR-RES, 18.1 µM (inactive); with OVCAR-5, > 85.7 µM (inactive); with PC-3, > 100 µM (inactive). The GI50 with SF-295 was 58.1 µM (inactive); with SK-MEL-28, 23.4 µM (inactive); in the assay on SK-MEL-5 it was 18.7 µM (inactive); in the assay with SNB-75 it was 62.4 µM (inactive); in the assay on SW-620 it was 8.75 µM (inactive); in the assay with UACC-62 it was 13.7 µM (inactive). Moreover, the GI50 in the assay on UO-31 is 29.7 µM (inactive).
Consider `CC(C)C1=C(O)C(=O)C2=C(C1=O)C(O)CC1C(C)(C)CCCC21C` (stereo unspecified), for which the GI50 in the assay on A549 is 4.56 µM (inactive); in the assay with DU-145, 8.3 µM (inactive); in the assay with HL-60, 14.9 µM (inactive); in the assay on HT-29, 22.1 µM (inactive); with KM12, 5.45 µM (inactive); in the assay with MDA-MB-435, 3.4 µM (inactive). For the same compound, the GI50 in the assay on Malme-3M is 3.87 µM (inactive); in the assay with NCI-H23, 1.79 µM (inactive); in the assay with NCI-H522, 21.6 µM (inactive); in the assay on OVCAR-5, 20.4 µM (inactive); in the assay with PC-3 it was 10.2 µM (inactive); in the assay on SF-295, 21.7 µM (inactive). Further, the GI50 is 13.3 µM (inactive) in the assay with SK-MEL-28; 2.43 µM (inactive) in the assay on SK-MEL-5; 30.2 µM (inactive) in the assay with SNB-75; 3.52 µM (inactive) in the assay with SW-620; 2.67 µM (inactive) in the assay with UACC-62; 5.09 µM (inactive) with UO-31.
